Assay results reported in US11779572B1, “Methods of treating gastrointestinal stromal tumors” (Deciphera Pharmaceuticals, LLC, priority 2022, dated 2023).

Columns and labels:
[1] = tested on: patients with advanced GIST; test: Example 1 study: treatment-emergent adverse events, safety; type: in vivo, human
Protocol: Patients were randomized 2:1 to either 150 mg of ripretinib or placebo once daily. The primary efficacy endpoint is progression-free survival (PFS) as determined by independent radiologic review using modified Response Evaluation Criteria in Solid Tumors (RECIST). Secondary endpoints as determined by independent radiologic review using modified RECIST include Objective Response Rate (ORR), Time to Tumor Progression (TTP) and Overall Survival (OS).
The safety of ripretinib and the impact of alopecia and palmar-plantar erythrodysesthesia (PPES) on patient-reported outcomes (PROs) of patients treated in the study described in Example 1 herein are described. […] When stratified by alopecia and PPES, patient reported assessments of function, overall health, and overall quality of life were maintained over time.

GIST patients = test: Example 2 study: treatment-emergent adverse events; type: in vivo, human
Protocol: Grade 3 or 4 treatment-emergent adverse events (TEAEs) in >5% of patients were lipase increased (18%; n=33), anemia (11%; n=20), hypertension (7%; n=13) and abdominal pain (6%; n=11). 13% of patients (n=24) experienced TEAEs leading to study treatment discontinuation, 17% of patients (n=31) experienced TEAEs leading to dose reduction and 49% of patients (n=88) had TEAEs leading to study drug interruption. Table 3 lists TEAEs >10% for GIST patients treated with ≥100 mg of ripretinib daily.

[2] = ≥100 mg daily, col c2 (no head; Grade 3 or 4)
[3] = ≥100 mg daily, col c3 (no head; c1+c2)

CCn1c(=O)c(-c2cc(NC(=O)Nc3ccccc3)c(F)cc2Br)cc2cnc(NC)cc21 [ripretinib]
alopecia in females ([1]; female, human, in vivo): 56.8% | Grade 3 or 4 TEAE abdominal pain ([1]; human, in vivo): 7% | Grade 3 or 4 TEAE hypertension ([1]; human, in vivo): 7% | TEAE alopecia (most common TEAE) ([1]; human, in vivo): 51.8% | patients reporting PPES ([1]; human, in vivo): 21.2% | patients with Grade 3 or 4 TEAEs ([1]; human, in vivo): 42 (49%) | patients with a TEAE leading to dose interruption ([1]; human, in vivo): 23.5% | patients with a TEAE leading to dose reduction ([1]; human, in vivo): 7.1% | TEAEs during the crossover period ([1]; in vivo): no safety concerns | patients with grade 3 PPES ([1]; in vivo): no patients | serious adverse events of alopecia or PPES ([1]; in vivo): no serious adverse events | alopecia in males ([1]; male, human, in vivo): 43.2% | patients with a TEAE leading to death ([1]; ripretinib arm): 5.9% | tolerability (GIST patients; GIST patients ≥100 mg daily): generally well tolerated | Grade 3 or 4 TEAE abdominal pain (GIST patients; ≥100 mg daily): 6% | Grade 3 or 4 TEAE anemia (GIST patients; ≥100 mg daily): 11% | Grade 3 or 4 TEAE hypertension (GIST patients; ≥100 mg daily): 7% | Grade 3 or 4 TEAE lipase increased (GIST patients; ≥100 mg daily): 18% | patients with TEAEs leading to dose reduction (GIST patients; ≥100 mg daily): 17% | patients with TEAEs leading to study drug interruption (GIST patients; ≥100 mg daily): 49% | patients with TEAEs leading to study treatment discontinuation (GIST patients; ≥100 mg daily): 13% | TEAE: Abdominal pain (GIST patients; ≥100 mg daily, col c1): 33 (18%) | TEAE: Actinic keratosis (GIST patients; ≥100 mg daily, col c1): 25 (14%) | TEAE: Alopecia (GIST patients; ≥100 mg daily, col c1): 102 (57%) | TEAE: Amylase increased (GIST patients; ≥100 mg daily, col c1): 19 (11%) | TEAE: Anemia (GIST patients; ≥100 mg daily, col c1): 18 (10%) | TEAE: Arthralgia (GIST patients; ≥100 mg daily, col c1): 40 (22%) | TEAE: Back Pain (GIST patients; ≥100 mg daily, col c1): 30 (17%) | TEAE: Blood bilirubin increase (GIST patients; ≥100 mg daily, col c1): 16 (9%) | TEAE: Blood creatine phosphokinase increased (GIST patients; ≥100 mg daily, col c1): 13 (7%) | TEAE: Constipation (GIST patients; ≥100 mg daily, col c1): 67 (37%) | TEAE: Cough (GIST patients; ≥100 mg daily, col c1): 37 (21%) | TEAE: Decreased appetite (GIST patients; ≥100 mg daily, col c1): 60 (34%) | TEAE: Diarrhea (GIST patients; ≥100 mg daily, col c1): 50 (28%) | TEAE: Dizziness (GIST patients; ≥100 mg daily, col c1): 29 (16%) | TEAE: Dry skin (GIST patients; ≥100 mg daily, col c1): 37 (21%) | TEAE: Dysgeusia (GIST patients; ≥100 mg daily, col c1): 20 (11%) | TEAE: Dyspnea (GIST patients; ≥100 mg daily, col c1): 32 (18%) | TEAE: Fatigue (GIST patients; ≥100 mg daily, col c1): 94 (53%) | TEAE: Headache (GIST patients; ≥100 mg daily, col c1): 33 (18%) | TEAE: Hypertension (GIST patients; ≥100 mg daily, col c1): 25 (14%) | TEAE: Hypokalaemia (GIST patients; ≥100 mg daily, col c1): 21 (12%) | TEAE: Hypomagnesaemia (GIST patients; ≥100 mg daily, col c1): 18 (10%) | TEAE: Hypophosphataemia (GIST patients; ≥100 mg daily, col c1): 17 (10%) | TEAE: Insomnia (GIST patients; ≥100 mg daily, col c1): 21 (12%) | TEAE: Lipase increased (GIST patients; ≥100 mg daily, col c1): 18 (10%) | TEAE: Muscle spasms (GIST patients; ≥100 mg daily, col c1): 47 (26%) | TEAE: Myalgia (GIST patients; ≥100 mg daily, col c1): 79 (44%) | TEAE: Nausea (GIST patients; ≥100 mg daily, col c1): 77 (43%) | TEAE: Pain in extremity (GIST patients; ≥100 mg daily, col c1): 18 (10%) | TEAE: Palmar-plantar erythrodysaesthesia syndrome (GIST patients; ≥100 mg daily, col c1): 71 (40%) | TEAE: Pruritus (GIST patients; ≥100 mg daily, col c1): 18 (10%) | TEAE: Rash (GIST patients; ≥100 mg daily, col c1): 27 (15%) | TEAE: Rash maculo-papular (GIST patients; ≥100 mg daily, col c1): 18 (10%) | TEAE: Seborrhoeic keratosis (GIST patients; ≥100 mg daily, col c1): 21 (12%) | TEAE: Skin papilloma (GIST patients; ≥100 mg daily, col c1): 17 (10%) | TEAE: Upper respiratory tract infection (GIST patients; ≥100 mg daily, col c1): 18 (10%) | TEAE: Urinary tract infection (GIST patients; ≥100 mg daily, col c1): 16 (9%) | TEAE: Vision blurred (GIST patients; ≥100 mg daily, col c1): 17 (10%) | TEAE: Vomiting (GIST patients; ≥100 mg daily, col c1): 42 (24%) | TEAE: Weight decreased (GIST patients; ≥100 mg daily, col c1): 51 (29%) | TEAE: Abdominal pain (GIST patients; [2]): 11 (6%) | TEAE: Actinic keratosis (GIST patients; [2]): 0 (0%) | TEAE: Alopecia (GIST patients; [2]): 0 (0%) | TEAE: Amylase increased (GIST patients; [2]): 2 (1%) | TEAE: Anemia (GIST patients; [2]): 20 (11%) | TEAE: Arthralgia (GIST patients; [2]): 0 (0%) | TEAE: Back Pain (GIST patients; [2]): 2 (1%) | TEAE: Blood bilirubin increase (GIST patients; [2]): 5 (3%) | TEAE: Blood creatine phosphokinase increased (GIST patients; [2]): 5 (3%) | TEAE: Constipation (GIST patients; [2]): 0 (0%) | TEAE: Cough (GIST patients; [2]): 0 (0%) | TEAE: Decreased appetite (GIST patients; [2]): 2 (1%) | TEAE: Diarrhea (GIST patients; [2]): 3 (2%) | TEAE: Dizziness (GIST patients; [2]): 0 (0%) | TEAE: Dry skin (GIST patients; [2]): 0 (0%) | TEAE: Dysgeusia (GIST patients; [2]): 0 (0%) | TEAE: Dyspnea (GIST patients; [2]): 4 (2%) | TEAE: Fatigue (GIST patients; [2]): 4 (2%) | TEAE: Headache (GIST patients; [2]): 1 (1%) | TEAE: Hypertension (GIST patients; [2]): 13 (7%) | TEAE: Hypokalaemia (GIST patients; [2]): 5 (3%) | TEAE: Hypomagnesaemia (GIST patients; [2]): 0 (0%) | TEAE: Hypophosphataemia (GIST patients; [2]): 8 (5%) | TEAE: Insomnia (GIST patients; [2]): 0 (0%) | TEAE: Lipase increased (GIST patients; [2]): 33 (18%) | TEAE: Muscle spasms (GIST patients; [2]): 0 (0%) | TEAE: Myalgia (GIST patients; [2]): 0 (0%) | TEAE: Nausea (GIST patients; [2]): 1 (1%) | TEAE: Pain in extremity (GIST patients; [2]): 1 (1%) | TEAE: Palmar-plantar erythrodysaesthesia syndrome (GIST patients; [2]): 1 (1%) | TEAE: Pruritus (GIST patients; [2]): 0 (0%) | TEAE: Rash (GIST patients; [2]): 0 (0%) | TEAE: Rash maculo-papular (GIST patients; [2]): 0 (0%) | TEAE: Seborrhoeic keratosis (GIST patients; [2]): 0 (0%) | TEAE: Skin papilloma (GIST patients; [2]): 0 (0%) | TEAE: Upper respiratory tract infection (GIST patients; [2]): 0 (0%) | TEAE: Urinary tract infection (GIST patients; [2]): 4 (2%) | TEAE: Vision blurred (GIST patients; [2]): 0 (0%) | TEAE: Vomiting (GIST patients; [2]): 2 (1%) | TEAE: Weight decreased (GIST patients; [2]): 1 (1%) | TEAE: Abdominal pain (GIST patients; [3]): 44 (25%) | TEAE: Actinic keratosis (GIST patients; [3]): 25 (14%) | TEAE: Alopecia (GIST patients; [3]): 102 (57%) | TEAE: Amylase increased (GIST patients; [3]): 21 (12%) | TEAE: Anemia (GIST patients; [3]): 38 (21%) | TEAE: Arthralgia (GIST patients; [3]): 40 (22%) | TEAE: Back Pain (GIST patients; [3]): 32 (18%) | TEAE: Blood bilirubin increase (GIST patients; [3]): 21 (12%) | TEAE: Blood creatine phosphokinase increased (GIST patients; [3]): 18 (10%) | TEAE: Constipation (GIST patients; [3]): 67 (37%) | TEAE: Cough (GIST patients; [3]): 37 (21%) | TEAE: Decreased appetite (GIST patients; [3]): 62 (35%) | TEAE: Diarrhea (GIST patients; [3]): 53 (30%) | TEAE: Dizziness (GIST patients; [3]): 29 (16%) | TEAE: Dry skin (GIST patients; [3]): 37 (21%) | TEAE: Dysgeusia (GIST patients; [3]): 20 (11%) | TEAE: Dyspnea (GIST patients; [3]): 36 (20%) | TEAE: Fatigue (GIST patients; [3]): 98 (55%) | TEAE: Headache (GIST patients; [3]): 34 (19%) | TEAE: Hypertension (GIST patients; [3]): 38 (21%) | TEAE: Hypokalaemia (GIST patients; [3]): 26 (15%) | TEAE: Hypomagnesaemia (GIST patients; [3]): 18 (10%) | TEAE: Hypophosphataemia (GIST patients; [3]): 25 (14%) | TEAE: Insomnia (GIST patients; [3]): 21 (12%) | TEAE: Lipase increased (GIST patients; [3]): 51 (29%) | TEAE: Muscle spasms (GIST patients; [3]): 47 (26%) | TEAE: Myalgia (GIST patients; [3]): 79 (44%) | TEAE: Nausea (GIST patients; [3]): 78 (44%) | TEAE: Pain in extremity (GIST patients; [3]): 19 (11%) | TEAE: Palmar-plantar erythrodysaesthesia syndrome (GIST patients; [3]): 72 (40%) | TEAE: Pruritus (GIST patients; [3]): 18 (10%) | TEAE: Rash (GIST patients; [3]): 27 (15%) | TEAE: Rash maculo-papular (GIST patients; [3]): 18 (10%) | TEAE: Seborrhoeic keratosis (GIST patients; [3]): 21 (12%) | TEAE: Skin papilloma (GIST patients; [3]): 17 (10%) | TEAE: Upper respiratory tract infection (GIST patients; [3]): 18 (10%) | TEAE: Urinary tract infection (GIST patients; [3]): 20 (11%) | TEAE: Vision blurred (GIST patients; [3]): 17 (10%) | TEAE: Vomiting (GIST patients; [3]): 44 (25%) | TEAE: Weight decreased (GIST patients; [3]): 52 (29%)
